Measured values as given in PMC10174618, “Monoterpenoid aryl hydrocarbon receptor allosteric antagonists protect against ultraviolet skin damage in female mice” (Nature Communications, 2023).

Experiments:
Assay in all cases: biochemical
Design in all cases: KINOMEscan scanMAX active site-directed competition binding assay, percent of control, 468 kinases
Conditions in all cases: competition binding, percent of control
ARK5 = biological target: T1, ARK5 (Homo sapiens, UniProt O60285)
T1 construct: gene NUAK1
In short: (§1)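 Single-concentration screen (100 μM S-carvone) in a competition binding panel of 468 human kinases (KINOMEscan scanMAX); results given as percent of control, hit cutoff 35%.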

CAMK1D = CAMK1D (Homo sapiens, UniProt Q8IU85)
In short: as §1

CAMK2D = CAMK2D (Homo sapiens, UniProt Q13557)
Sequence of CAMK2D (Q13557 whole entry): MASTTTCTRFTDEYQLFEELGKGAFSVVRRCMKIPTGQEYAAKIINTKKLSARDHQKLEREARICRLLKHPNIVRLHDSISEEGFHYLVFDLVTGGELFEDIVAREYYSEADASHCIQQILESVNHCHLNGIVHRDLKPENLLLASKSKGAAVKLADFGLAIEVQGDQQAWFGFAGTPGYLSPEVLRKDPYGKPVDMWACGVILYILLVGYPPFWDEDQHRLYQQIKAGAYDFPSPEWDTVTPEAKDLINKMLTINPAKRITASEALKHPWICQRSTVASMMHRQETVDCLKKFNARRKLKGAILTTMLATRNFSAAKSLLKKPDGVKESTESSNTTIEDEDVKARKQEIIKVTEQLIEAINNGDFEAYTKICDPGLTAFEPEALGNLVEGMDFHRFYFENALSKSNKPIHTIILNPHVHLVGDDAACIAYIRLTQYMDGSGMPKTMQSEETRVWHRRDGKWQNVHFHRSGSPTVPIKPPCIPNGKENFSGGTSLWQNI
In short: as §1

CDK4 = CDK4 (Homo sapiens, UniProt P11802)
In short: as §1

GRK7 = GRK7 (Homo sapiens, UniProt Q8WTQ7)
In short: as §1

GSK3A = GSK3A (Homo sapiens, UniProt P49840)
In short: as §1

HIPK3 = HIPK3 (Homo sapiens, UniProt Q9H422)
In short: as §1

KIT(D816V) = KIT(D816V) (Homo sapiens, UniProt P10721, D816V)
In short: as §1

MAP3K15 = MAP3K15 (Homo sapiens, UniProt Q6ZN16)
In short: as §1

MAP3K4 = MAP3K4 (Homo sapiens, UniProt Q9Y6R4)
In short: as §1

MEK2 = biological target: T2, MEK2 (Homo sapiens, UniProt P36507)
T2 construct: gene MAP2K2
In short: as §1

MST1R = MST1R (Homo sapiens, UniProt Q04912)
In short: as §1

PIK3C2B = PIK3C2B (Homo sapiens, UniProt O00750)
Sequence of PIK3C2B (O00750 whole entry): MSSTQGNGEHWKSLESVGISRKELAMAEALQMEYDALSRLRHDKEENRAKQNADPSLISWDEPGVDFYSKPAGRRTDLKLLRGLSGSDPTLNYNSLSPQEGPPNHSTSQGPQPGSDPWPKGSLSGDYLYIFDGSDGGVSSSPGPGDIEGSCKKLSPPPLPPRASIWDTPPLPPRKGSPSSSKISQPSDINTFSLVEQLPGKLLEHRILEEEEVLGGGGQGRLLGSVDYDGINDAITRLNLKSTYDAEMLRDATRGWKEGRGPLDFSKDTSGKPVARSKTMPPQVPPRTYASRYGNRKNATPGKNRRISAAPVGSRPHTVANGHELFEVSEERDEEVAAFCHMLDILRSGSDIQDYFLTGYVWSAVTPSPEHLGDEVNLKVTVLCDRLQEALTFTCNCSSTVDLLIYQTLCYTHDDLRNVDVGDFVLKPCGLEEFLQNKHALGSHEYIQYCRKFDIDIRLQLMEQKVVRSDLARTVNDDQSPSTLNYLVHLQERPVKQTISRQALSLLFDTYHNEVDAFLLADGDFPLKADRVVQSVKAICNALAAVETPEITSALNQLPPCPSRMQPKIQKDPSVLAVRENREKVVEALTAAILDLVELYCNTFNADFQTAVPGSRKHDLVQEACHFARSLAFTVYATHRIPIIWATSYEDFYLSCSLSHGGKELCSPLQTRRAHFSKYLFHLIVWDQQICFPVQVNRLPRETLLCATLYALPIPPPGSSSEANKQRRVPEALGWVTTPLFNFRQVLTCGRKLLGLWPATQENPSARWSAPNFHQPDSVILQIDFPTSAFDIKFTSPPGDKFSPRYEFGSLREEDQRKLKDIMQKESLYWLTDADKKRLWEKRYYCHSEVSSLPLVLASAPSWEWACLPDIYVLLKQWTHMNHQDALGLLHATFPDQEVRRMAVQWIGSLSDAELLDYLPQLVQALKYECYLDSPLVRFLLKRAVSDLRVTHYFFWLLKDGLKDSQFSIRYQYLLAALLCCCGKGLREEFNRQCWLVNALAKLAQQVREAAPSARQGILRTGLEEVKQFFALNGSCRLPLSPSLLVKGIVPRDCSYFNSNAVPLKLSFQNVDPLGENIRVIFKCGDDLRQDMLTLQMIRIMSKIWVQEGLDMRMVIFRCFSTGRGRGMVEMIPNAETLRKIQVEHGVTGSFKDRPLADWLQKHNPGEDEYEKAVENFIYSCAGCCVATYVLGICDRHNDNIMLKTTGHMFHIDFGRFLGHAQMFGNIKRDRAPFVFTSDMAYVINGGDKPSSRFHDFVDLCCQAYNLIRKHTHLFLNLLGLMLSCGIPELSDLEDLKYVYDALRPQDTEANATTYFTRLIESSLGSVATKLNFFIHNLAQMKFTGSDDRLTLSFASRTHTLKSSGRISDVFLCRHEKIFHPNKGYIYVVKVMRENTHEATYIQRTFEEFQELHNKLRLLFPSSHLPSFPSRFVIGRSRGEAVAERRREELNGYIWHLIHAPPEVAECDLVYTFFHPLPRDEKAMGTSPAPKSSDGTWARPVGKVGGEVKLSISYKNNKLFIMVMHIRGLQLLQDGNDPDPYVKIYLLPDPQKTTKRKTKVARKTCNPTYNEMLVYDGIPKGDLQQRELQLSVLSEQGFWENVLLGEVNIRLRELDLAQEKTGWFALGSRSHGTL
In short: as §1

PIK3C2G = PIK3C2G (Homo sapiens, UniProt O75747)
In short: as §1

PIK3CA(C420R) = PIK3CA(C420R) (Homo sapiens, UniProt P42336, C420R)
Sequence of PIK3CA(C420R) (P42336 whole entry C420R): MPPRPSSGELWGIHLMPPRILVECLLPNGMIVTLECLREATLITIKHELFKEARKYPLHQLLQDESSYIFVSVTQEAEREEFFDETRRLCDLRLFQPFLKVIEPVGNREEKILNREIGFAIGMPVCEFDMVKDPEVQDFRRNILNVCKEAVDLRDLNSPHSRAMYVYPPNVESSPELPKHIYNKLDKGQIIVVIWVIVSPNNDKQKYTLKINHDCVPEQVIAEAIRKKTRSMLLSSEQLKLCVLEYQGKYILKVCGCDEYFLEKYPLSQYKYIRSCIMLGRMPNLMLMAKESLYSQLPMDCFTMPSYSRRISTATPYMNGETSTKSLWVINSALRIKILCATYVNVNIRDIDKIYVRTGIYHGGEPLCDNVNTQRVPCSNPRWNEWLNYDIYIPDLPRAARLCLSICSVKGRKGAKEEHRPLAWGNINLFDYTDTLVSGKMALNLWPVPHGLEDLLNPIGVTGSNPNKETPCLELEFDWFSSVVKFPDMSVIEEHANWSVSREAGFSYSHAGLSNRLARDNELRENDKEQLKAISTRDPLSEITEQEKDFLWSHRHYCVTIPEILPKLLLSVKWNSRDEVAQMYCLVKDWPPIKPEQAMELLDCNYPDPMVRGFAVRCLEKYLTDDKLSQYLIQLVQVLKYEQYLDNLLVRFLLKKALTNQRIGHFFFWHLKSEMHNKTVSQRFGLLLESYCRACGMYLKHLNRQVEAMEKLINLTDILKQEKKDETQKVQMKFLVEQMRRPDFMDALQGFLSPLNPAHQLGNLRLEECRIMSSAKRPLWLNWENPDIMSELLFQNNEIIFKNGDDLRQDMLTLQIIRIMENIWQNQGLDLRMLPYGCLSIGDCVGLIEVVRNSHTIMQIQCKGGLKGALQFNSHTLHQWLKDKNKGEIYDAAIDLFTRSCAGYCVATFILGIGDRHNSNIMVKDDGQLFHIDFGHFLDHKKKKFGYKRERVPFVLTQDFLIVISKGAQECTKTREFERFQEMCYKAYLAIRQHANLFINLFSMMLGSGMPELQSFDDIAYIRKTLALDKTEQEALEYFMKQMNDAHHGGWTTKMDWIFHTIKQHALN
In short: as §1

PKAC-alpha = biological target: T3, PKAC-alpha (Homo sapiens, UniProt P17612)
T3 construct: gene PRKACA
In short: as §1

RIPK4 = RIPK4 (Homo sapiens, UniProt P57078)
Sequence of RIPK4 (P57078 whole entry): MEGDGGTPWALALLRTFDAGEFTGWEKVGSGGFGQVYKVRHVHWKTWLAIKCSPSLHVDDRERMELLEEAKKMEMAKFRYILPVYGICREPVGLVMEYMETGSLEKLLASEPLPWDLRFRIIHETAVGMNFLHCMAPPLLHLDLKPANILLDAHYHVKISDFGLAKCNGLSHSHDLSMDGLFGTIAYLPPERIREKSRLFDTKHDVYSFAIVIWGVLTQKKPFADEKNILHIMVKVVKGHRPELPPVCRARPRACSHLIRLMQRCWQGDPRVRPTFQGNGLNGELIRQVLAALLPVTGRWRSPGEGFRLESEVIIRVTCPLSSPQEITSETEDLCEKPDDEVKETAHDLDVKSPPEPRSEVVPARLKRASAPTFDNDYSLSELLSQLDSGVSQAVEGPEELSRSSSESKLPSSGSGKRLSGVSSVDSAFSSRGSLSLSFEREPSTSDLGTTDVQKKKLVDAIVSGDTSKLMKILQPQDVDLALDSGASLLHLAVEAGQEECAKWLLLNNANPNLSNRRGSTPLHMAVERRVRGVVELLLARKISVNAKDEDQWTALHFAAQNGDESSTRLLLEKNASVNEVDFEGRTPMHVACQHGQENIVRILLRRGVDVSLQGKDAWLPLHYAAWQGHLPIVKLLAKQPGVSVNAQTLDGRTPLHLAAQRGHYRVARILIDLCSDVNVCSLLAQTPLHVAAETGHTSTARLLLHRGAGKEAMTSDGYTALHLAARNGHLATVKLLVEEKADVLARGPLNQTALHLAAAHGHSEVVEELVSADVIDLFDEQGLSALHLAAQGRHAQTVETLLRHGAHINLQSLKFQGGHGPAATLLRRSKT
In short: as §1

SgK110 = biological target: T4, SgK110 (Homo sapiens, UniProt P0C264)
T4 construct: gene SBK3
In short: as §1

TEC = TEC (Homo sapiens, UniProt P42680)
In short: as §1

TTK = TTK (Homo sapiens, UniProt P33981)
Sequence of TTK (P33981 whole entry): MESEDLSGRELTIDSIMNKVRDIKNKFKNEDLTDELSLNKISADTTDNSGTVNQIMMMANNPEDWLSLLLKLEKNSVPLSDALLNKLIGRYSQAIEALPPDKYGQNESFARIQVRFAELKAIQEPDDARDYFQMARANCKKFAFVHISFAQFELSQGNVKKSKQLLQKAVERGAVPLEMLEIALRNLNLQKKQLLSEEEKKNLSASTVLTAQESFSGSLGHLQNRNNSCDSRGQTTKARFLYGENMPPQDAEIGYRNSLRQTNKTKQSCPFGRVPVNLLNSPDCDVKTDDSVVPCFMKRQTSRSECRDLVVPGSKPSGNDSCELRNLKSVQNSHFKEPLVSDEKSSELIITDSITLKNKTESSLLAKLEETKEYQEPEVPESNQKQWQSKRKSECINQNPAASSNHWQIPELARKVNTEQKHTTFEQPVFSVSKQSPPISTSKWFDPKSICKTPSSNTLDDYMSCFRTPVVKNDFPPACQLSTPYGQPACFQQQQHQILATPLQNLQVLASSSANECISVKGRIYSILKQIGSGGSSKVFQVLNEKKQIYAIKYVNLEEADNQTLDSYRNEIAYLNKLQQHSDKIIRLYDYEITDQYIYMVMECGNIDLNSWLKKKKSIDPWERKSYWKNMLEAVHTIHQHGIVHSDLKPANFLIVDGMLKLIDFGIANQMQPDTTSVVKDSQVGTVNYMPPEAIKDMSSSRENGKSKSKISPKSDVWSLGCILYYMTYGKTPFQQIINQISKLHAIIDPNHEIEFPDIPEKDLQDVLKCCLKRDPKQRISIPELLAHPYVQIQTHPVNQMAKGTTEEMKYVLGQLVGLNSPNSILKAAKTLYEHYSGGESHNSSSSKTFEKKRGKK
In short: as §1

[1] = biological target: T5, TYK2(JH1domain-catalytic) (Homo sapiens, UniProt P29597)
T5 construct: JH1domain-catalytic
In short: as §1

YSK1 = biological target: T6, YSK1 (Homo sapiens, UniProt O00506)
T6 construct: gene STK25
In short: as §1

remaining binding at 100 µM (ARK5): 100%
remaining binding at 100 µM (CAMK1D): 83%
remaining binding at 100 µM (CAMK2D): 94%
remaining binding at 100 µM (CDK4): 71%
remaining binding at 100 µM (GRK7): 75%
remaining binding at 100 µM (GSK3A): 100%
remaining binding at 100 µM (HIPK3): 51%
remaining binding at 100 µM (KIT(D816V)): 78%
remaining binding at 100 µM (MAP3K15): 93%
remaining binding at 100 µM (MAP3K4): 79%
remaining binding at 100 µM (MEK2): 86%
remaining binding at 100 µM (MST1R): 65%
remaining binding at 100 µM (PIK3C2B): 72%
remaining binding at 100 µM (PIK3C2G): 62%
remaining binding at 100 µM (PIK3CA(C420R)): 96%
remaining binding at 100 µM (PKAC-alpha): 85%
remaining binding at 100 µM (RIPK4): 64%
remaining binding at 100 µM (SgK110): 93%
remaining binding at 100 µM (TEC): 96%
remaining binding at 100 µM (TTK): 80%
remaining binding at 100 µM [1]: 58%
remaining binding at 100 µM (YSK1): 73%
Compound: C=C(C)[C@H]1CC=C(C)C(=O)C1 [S-carvone]
